Test results from ChEMBL document CHEMBL3871287, “Discovery of SMP-304, a novel benzylpiperidine derivative with serotonin transporter inhibitory activity and 5-HT1A weak partial agonistic activity showing the antidepressant-like effect” (Bioorg Med Chem, 2017).
Calls of active or inactive are those of the source. The calls are words filed in the database; no cut-off is given here.

Experiments:
[1] = molecular target: T1, Sodium-dependent serotonin transporter (Homo sapiens, UniProt P31645); experiment: Inhibition of human SERT expressed in CHO cell membranes assessed as reduction in [3H]serotonin uptake preincubated for 10 mins followed by [3H]serotonin addition measured after 20 mins by liquid scintillation counting method; type: cell-based
T1 sequence (P31645 whole entry): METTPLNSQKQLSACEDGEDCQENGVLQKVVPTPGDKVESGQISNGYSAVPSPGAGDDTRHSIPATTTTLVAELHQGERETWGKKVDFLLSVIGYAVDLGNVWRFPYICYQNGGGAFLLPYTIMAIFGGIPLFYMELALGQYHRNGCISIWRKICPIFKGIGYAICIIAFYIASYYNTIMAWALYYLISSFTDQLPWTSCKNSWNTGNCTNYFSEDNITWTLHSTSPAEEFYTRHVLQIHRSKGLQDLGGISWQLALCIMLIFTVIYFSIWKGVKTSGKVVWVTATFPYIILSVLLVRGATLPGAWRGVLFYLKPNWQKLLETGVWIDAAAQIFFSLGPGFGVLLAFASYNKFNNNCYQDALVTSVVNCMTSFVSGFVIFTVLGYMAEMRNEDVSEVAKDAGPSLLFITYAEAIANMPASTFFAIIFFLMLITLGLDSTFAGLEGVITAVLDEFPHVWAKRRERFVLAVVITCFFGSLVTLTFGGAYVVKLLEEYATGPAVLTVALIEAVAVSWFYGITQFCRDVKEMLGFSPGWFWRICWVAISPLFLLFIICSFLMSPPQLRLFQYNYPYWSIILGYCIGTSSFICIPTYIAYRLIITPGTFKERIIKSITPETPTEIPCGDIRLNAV

[2] = molecular target: T2, 5-hydroxytryptamine receptor 1A (Homo sapiens, UniProt P08908); experiment: Displacement of [3H]-8-OH-DPAT from human 5-HT1A receptor expressed in CHOK1 cells after 30 mins by liquid scintillation counting analysis; type: cell-based, CHO-K1
T2 sequence (P08908 whole entry): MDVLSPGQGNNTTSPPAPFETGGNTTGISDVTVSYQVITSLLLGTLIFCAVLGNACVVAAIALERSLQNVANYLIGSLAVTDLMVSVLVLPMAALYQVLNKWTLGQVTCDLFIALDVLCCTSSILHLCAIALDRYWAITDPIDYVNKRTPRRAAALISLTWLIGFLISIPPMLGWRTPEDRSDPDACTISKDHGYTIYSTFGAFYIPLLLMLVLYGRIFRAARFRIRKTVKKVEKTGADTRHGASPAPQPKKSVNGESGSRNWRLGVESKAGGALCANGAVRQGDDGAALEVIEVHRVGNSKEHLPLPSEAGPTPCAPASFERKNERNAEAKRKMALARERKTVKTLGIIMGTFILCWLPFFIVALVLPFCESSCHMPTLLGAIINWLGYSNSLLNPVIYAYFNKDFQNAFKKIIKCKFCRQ

[3] = molecular target: T1, Sodium-dependent serotonin transporter; experiment: Displacement of [3H]citalopram from human SERT expressed in HEK293 cell membranes after 1 hr by liquid scintillation counting method; type: cell-based
HEK293 = experiment: Selectivity ratio of Ki for human SERT expressed in HEK293 cell membranes to Ki for human 5-HT1A expressed in CHO-K1 cell membranes; type: cell-based
Rattus norvegicus [4] = experiment: Toxicity in Wistar rat assessed as increase in spontaneous locomotor activity at 3 and 10 mg/kg, po administered 26 and 2 hrs prior to testing measured for 30 mins; type: organism-based; details: in vivo, 0.5 h
[5] = Drug uptake in Wistar rat brain at 1 mg/kg, po administered 26 and 2 hrs prior to testing by HPLC/MS analysis; type: ADME, organism-based; details: in vivo
[6] = Antidepressant-like activity in Wistar rat assessed as decrease in immobility time at 1 and 3 mg/kg, po administered 30 mins post start of training session for 2 days measured 2 hrs post last dose by forced swimming test; type: functional, organism-based
Rattus norvegicus [7] = experiment: Toxicity in Wistar rat assessed as increase in spontaneous locomotor activity at 1 and 3 mg/kg, po administered 26 and 2 hrs prior to testing measured for 30 mins; type: organism-based; details: in vivo
[8] = Drug uptake in Wistar rat brain at 3 mg/kg, po administered 26 and 2 hrs prior to testing by HPLC/MS analysis; type: ADME, organism-based; details: in vivo
Cytochrome P450 2D6 = Cytochrome P450 2D6 (Homo sapiens, UniProt P10635); experiment: Inhibition of CYP2D6 in human liver microsomes assessed as reduction in formation of 1'-hydroxy-bufuralol from bufuralol preincubated with enzyme followed by substrate and beta-NADPH addition measured after 10 mins by LC-MS/MS analysis; type: ADME
Chain of Cytochrome P450 2D6 (P10635 whole entry): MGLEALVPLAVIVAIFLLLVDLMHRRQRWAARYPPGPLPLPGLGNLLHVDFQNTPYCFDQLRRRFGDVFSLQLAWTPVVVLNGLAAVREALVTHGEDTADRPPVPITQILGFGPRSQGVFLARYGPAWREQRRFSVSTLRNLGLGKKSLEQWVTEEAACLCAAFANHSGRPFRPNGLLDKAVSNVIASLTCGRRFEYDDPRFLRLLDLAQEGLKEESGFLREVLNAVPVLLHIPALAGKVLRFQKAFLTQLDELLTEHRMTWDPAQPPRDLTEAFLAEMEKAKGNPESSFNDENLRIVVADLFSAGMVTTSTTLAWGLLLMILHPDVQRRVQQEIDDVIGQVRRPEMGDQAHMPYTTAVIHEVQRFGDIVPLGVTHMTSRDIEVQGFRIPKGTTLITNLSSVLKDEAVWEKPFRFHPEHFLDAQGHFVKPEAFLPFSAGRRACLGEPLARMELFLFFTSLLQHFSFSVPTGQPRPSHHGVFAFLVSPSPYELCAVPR

Row | Structure (SMILES) | Ki [1] | Ki [2] | other results
1 | COc1ccc(Br)c(CC2CCN(CCc3ccccc3Cl)CC2)c1 | 62.4 nM | 4.08 nM | 
2 | COc1ccc(Br)c(CC2CCN(CCc3ccccc3)CC2)c1 | 66.4 nM | 2.72 nM | Ki [3]: 66.4 nM; Ratio Ki (HEK293): > 20
3 | Fc1ccc([C@@H]2CCNC[C@H]2COc2ccc3c(c2)OCO3)cc1 [PAROXETINE] |  |  | Activity (Rattus norvegicus [4]): Non-Toxic
4 | COc1cccc(CCN2CCC(Cc3cc(OC)ccc3Br)CC2)c1 | 37.5 nM | 0.82 nM | 
5 | COc1ccc(Br)c(CC2CCN(CCc3cccc4c3OCCO4)CC2)c1 | 25.6 nM | 2.12 nM | 
6 | COCCOc1ccc(Br)c(CC2CCN(CCc3cc4c(cc3Cl)OCCO4)CC2)c1.Cl | 32.7 nM |  | IC50 [1]: 306 nM; Drug uptake [5]: 6.74 nmol/kg; Activity [6]: Active; Activity (Rattus norvegicus [7]): Non-Toxic; Drug uptake [8]: 30.3 nmol/kg; IC50 (Cytochrome P450 2D6): 3000 nM
7 | COc1ccc(Br)c(CC2CCN(CCc3ccc4c(c3)OCCO4)CC2)c1 | 14 nM | 0.36 nM | 
8 | CC(C)Oc1ccc(Br)c(CC2CCN(CCc3cc4c(cc3Cl)OCCO4)CC2)c1 | 13.9 nM | 15.9 nM | IC50 (Cytochrome P450 2D6): 1500 nM
9 | COc1ccc(Br)c(CC2CCN(CCc3cc4c(cc3Cl)OCCO4)CC2)c1 | 12.4 nM | 6.46 nM | IC50 (Cytochrome P450 2D6): < 400 nM; Ratio Ki (HEK293): < 2
10 | COc1ccc(F)c(CC2CCN(CCc3ccccc3)CC2)c1 |  | 6.04 nM | Ki [3]: 274 nM
11 | COc1ccc(Br)c(CC2CCN(CCc3ccc(OC)c(Cl)c3)CC2)c1 | 18.9 nM | 1.04 nM | 
12 | COc1ccc(F)c(CC2CCN(C3CCN(c4ccc(OC)c(OC)c4)CC3)CC2)c1 |  |  | Ki [3]: < 100 nM
13 | COc1ccc(CCN2CCC(Cc3cc(OC)ccc3Br)CC2)cc1 | 37.5 nM | 0.81 nM | 
14 | CCOc1ccc(Br)c(CC2CCN(CCc3cc4c(cc3Cl)OCCO4)CC2)c1 | 18.7 nM | 23.4 nM | IC50 (Cytochrome P450 2D6): 1400 nM
15 | COc1ccc(Cl)c(CC2CCN(CCc3ccccc3)CC2)c1 |  | 2.27 nM | Ki [3]: 102 nM
16 | COc1ccc(Br)c(CC2CCN(CCc3cc(OC)c(OC)cc3Cl)CC2)c1 | 28 nM | 1.96 nM | 
17 | COc1cccc(CC2CCN(CCc3ccccc3)CC2)c1 |  | 29.3 nM | Ki [3]: 212 nM
18 | COc1ccc(Br)c(CC2CCN(CCc3ccc4ccccc4c3)CC2)c1 | 25.6 nM | 0.89 nM | 
19 | COc1ccc(CCN2CCC(Cc3cc(OC)ccc3Br)CC2)c(Cl)c1 | 30.5 nM | 1.12 nM | 
20 | COc1ccc(Br)c(CC2CCN(CCc3ccccc3OC)CC2)c1 | 37.6 nM | 3.03 nM | 
21 | COc1ccc(Br)c(CC2CCN(C3CCN(c4ccc(OC)c(OC)c4)CC3)CC2)c1 |  |  | IC50 [2]: < 10 nM
22 | COc1ccc(Br)c(CC2CCN(CCc3ccc(C)cc3)CC2)c1 | 65.3 nM | 1.4 nM | 
23 | COc1ccc(Br)c(CC2CCN(CCc3ccc(Cl)cc3)CC2)c1 | 46.2 nM | 1.34 nM | 
24 | COc1ccc(Br)c(CC2CCN(CCc3ccc(OC)c(OC)c3)CC2)c1 | 26.9 nM | 1.56 nM | 
25 | COc1ccc(Br)c(CC2CCN(CCc3ccc(F)cc3)CC2)c1 | 51.2 nM | 1.04 nM | 
26 | COc1ccc(Br)c(CC2CCN(CCc3cccc4ccccc34)CC2)c1 | 38.9 nM | 4.81 nM | 
27 | COc1ccc(Br)c(CC2CCN(CCc3cccc(Cl)c3)CC2)c1 | 42.6 nM | 2.93 nM | 
